Measured values published in US20120052041A1, “POLYMERIC NANOPARTICLES WITH ENHANCED DRUG-LOADING AND METHODS OF USE THEREOF” (THE BRIGHAM AND WOMEN'S HOSPITAL, INC., priority 2009, published 2012).
Like-named read-outs stand apart in the source and are kept apart here.

How the values were obtained:
B16-F10 [1] = assay: MTS cell viability assay, B16-F10; assay type: cell-based; conditions: Mus musculus, 48 hrs, read-out: proportion of viable cells as percentage of vehicle-treated control
Procedure: (§1) Cancer cells in 96-well plates were incubated with various doses PD or NP for 24, 48 and 72 hrs. The percentage of viable cells was then quantified with 3-(4,5-Dimethylthiazol-2-yl)-5-(3-carboxymethoxyphenyl)-2-(4-sulfophenyl)-2H-tetrazolium (MTS) from the CellTiter 96 AQueous One Solution kit. MTS is reduced by mitochondrial dehydrogenases of live cells, yielding a colored adduct that can be read spectrophotometrically. Briefly, the cells were washed with PBS, incubated with 0.3 mg/ml of MTS, in basal medium without phenol red, for 4 hrs at 37° C. and absorbance was then measured at 490 nm in a plate reader (Versamax, Molecular Devices, Sunnyvale, Calif.). Final absorbance, corresponding to cell proliferation, was plotted after removing background values from each data point.
(§2) Cancer or endothelial cells in 96-well plates were incubated with various doses of free LY or NP-LY for 24, 48 and 72 hrs. The percentage of viable cells were then quantified with 3-(4,5-Dimethylthiazol-2-yl)-5-(3-carboxymethoxyphenyl)-2-(4-sulfophenyl)-2H-tetrazolium (MTS) from the CellTiter 96 AQueous One Solution kit. MTS is reduced by mitochondrial dehydrogenases of live cells, yielding a colored adduct that can be read spectrophotometrically. […] Final absorbance, corresponding to cell proliferation, was plotted after removing background values from each data point.

AKT [2] = assay: Immunoblotting of VEGF-induced AKT phosphorylation, HUVEC; assay type: cell-based, human; conditions: 50 μM, 24 hours
LLC = assay: MTS cell viability assay, LLC; assay type: cell-based; conditions: Mus musculus, Lewis lung carcinoma, 48 hrs, read-out: proportion of viable cells as percentage of vehicle-treated control
Procedure: as §1, §2

AKT [3] = assay: Immunoblotting of phosphorylated vs total AKT, MDA-MB-231; assay type: cell-based, human; conditions: 50 μM, 24 hrs
Procedure: (§3) Cancer or endothelial cells were washed twice with PBS and directly lysed in 3× loading buffer containing 12% sodium dodecyl sulfate, 15% 2-mercaptoethanol, 1 mM sodium orthovandate and protease inhibitor cocktail tablets from Roche Applied Science (Indianapolis, Ind.). Cells were further homogenized by passing the lysates 3 times through an insulin needle. Samples were then heated for 5 min at 100° C. and equal amounts loaded onto tris-glycine SDS-polyacrylamide gels. Proteins were electrophoretically transferred onto polyvinylidene difluoride membranes, blocked for 1 h with 7% non-fat dry milk, and subsequently incubated overnight at 4° C. with primary antibodies directed against the phosphorylated or total forms of AKT. Proteins were detected with horseradish peroxidase-conjugated anti-rabbit secondary antibodies and Lumi-LightPLUS Western Blotting Substrate (Roche Applied Science). The blots were developed using GeneSnap and optical densities off the protein bands quantified using GeneTools (both from SynGene, Frederick, Md.). Predetermined molecular weight standards were used as markers. Proteins were normalized against actin.
To further evaluate the underlying mechanisms of action of nanoparticles in cancer cells, MDA-MB-231 and B16-F10 were treated with 50 μM of LY294002 or NP-LY and subjected to immunoblotting against the phospho- and total forms of AKT (FIG. 8A). […]

MDA-MB-231 [4] = assay: MTS cell viability assay, MDA-MB-231; assay type: cell-based; conditions: Homo sapiens, 48 hrs, read-out: proportion of viable cells as percentage of vehicle-treated control
Procedure: as §1, §2

B16-F10 [5] = assay: Annexin V/propidium iodide apoptosis FACS, B16-F10; assay type: cell-based, mouse
Procedure: (§4) Cells grown in 6-well plates were treated with drugs for 48 h, and incubated with 5 μL AnnexinV-Alexa Fluor 488 in binding buffer (10 mM HEPES, 140 mM NaCl, 2.5 mM CaCl2, pH 7.4) for 15 min in the dark, according to the manufacturer's protocol. Cells were then washed with binding buffer, counterstained with propidium iodide and immediately processed for FITC and propidium iodide staining using a Becton Dickinson FACSCalibur flow cytometer (excitation 488 and 585 nm, respectively). AnnexinV-Alexa Fluor 488, propidium iodide or both were omitted for the negative controls.
as §4, with “Cancer cells grown” for “Cells grown”, “5 μl” for “5 μL”

PI3K = conditions: literature [17]; cited from earlier work
MDA-MB-231 [6] = assay: Annexin V/propidium iodide apoptosis FACS, MDA-MB-231; assay type: cell-based, human
Procedure: as §4
as §4, with “Cancer cells grown” for “Cells grown”, “5 μl” for “5 μL”

HUVEC [7] = assay: MTS assay of FGF-induced HUVEC proliferation; assay type: cell-based, human; conditions: increasing concentrations, 24 and 48 hours
Description: Human umbilical vein endothelial cells (HUVEC) were obtained from Cambrex Bio Science (Hopkinton, Mass.) and cultured in EGM-2 medium according to the manufacturer's protocol. A single donor was obtained at passage one, and cells were used between passages 2 and 5. After reaching the first confluence in 100 mm dishes (within 6 to 7 days), the cells were subcultured following trypsin (0.025%) and EDTA (0.01%) application, and plated at various densities depending on the experiment. For all experiments, HUVEC were synchronized overnight using serum reduced medium (0.1% FBS) prior to drug addition, except in the case of the tube assay. […]
as §1, with “Cancer or endothelial” for “Cancer”, “doses of free LY” for “doses PD”, “or NP-LY” for “or NP”, “cells were” for “cells was”, “Calif.). […]” for “Calif.). Final absorbance, corresponding to cell proliferation, was plotted after removing background values from each data point.”

HUVEC [8] = assay: HUVEC tube assay on matrigel; assay type: cell-based, human; conditions: for inhibition at 50 µM: Homo sapiens, HUVEC, 48 hrs
Procedure: The effect of the drugs using an in vitro angiogenic assay were quantified as follows. HUVEC were seeded in 24-well plates, on glass coverslips that had been coated with matrigel, in medium containing 50 μM of LY or NP-LY for 24 and 48 hrs. At each time points, cells were fixed with 4% paraformaldehyde and immediately visualized under inverted light microscopy at 20× magnification (Nikon Eclipse). Since the matrigel tube assay often yields high variability, we took 10 fields of view per coverslip with 5 coverslips per conditions, and furthermore, used three morphometric methods using the NIS-elements software (Nikon, Melville, N.Y., courtesy of Dr Jeffrey M. Karp) to quantify the results. In the first such method, we measured the length of each tube per field, in the second we measured the associated number of nodes, whereas in the third method, we used a standard graticule to measure the number of vessels falling on each intersection.

ERK1/2 [9] = assay: Immunoblotting of phosphorylated vs total ERK1/2, B16-F10; assay type: cell-based, mouse; conditions: 50 μM
Procedure: as §3, with “Cells were washed” for “Cancer or endothelial cells were washed”, “forms of ERK1//2 and AKT. Proteins” for “forms of AKT. Proteins”
(§5) The inventors next evaluated the effect of the treatments on the phosphorylation status of ERK in the two cell lines. […]

[10] = tested on: panel of 18 other serine/threonine kinases; conditions: previous studies [15]; cited from earlier work
B16/F10 melanoma = assay: In vivo murine B16/F10 melanoma tumor model; parameters: species or system mouse
Procedure: Male C57/BL6 mice (20 g) were injected with 5×10^5 BL6/F10 melanoma cells into the flanks. The drug therapy was started after the tumors attained volume of 25 mm3. The animals were intravenously injected with free PD98059 or PD98059-nanoparticles such that the total dose of PD98059 was 5 mg/kg of PD98059 (administered by tail vein injection). A batch of PD98059 (free or as nanoparticle)-treated animals were subsequently injected with cisplatin (2.5 mg/kg), which was administered intraperitoneally after […] following the PD98059 dosing. The total volume of injection was 100 μl. The tumor volumes and body weights were monitored on a daily basis. The animals were sacrificed at predefined time points. The organs (liver, lung, spleen, kidney and tumor) were harvested immediately following sacrifice and divided into equal parts and stored at −80° C. for further analysis.
To validate the therapeutic efficacy of this treatment, the inventors randomly sorted mice bearing established B16/F10 melanomas into five groups, which received three doses of one of the following treatments (i) vehicle control (ii) free PD98 059 (5 mg/kg) (iii) PD98059-nanoparticle (equivalent to 5 mg/kg of PD98059) (iv) Cisplatin (1.25 mg/kg) and (v) PD98059-nanoparticle (equivalent to 5 mg/kg of PD98059)+Cisplatin (1.25 mg/kg). Cisplatin was administered intraperitoneally one day after the PD98059 administration in order to achieve a sequential biological effect of MAPK-inhibition followed by induction of chemotherapy-induced cytotoxicity. The mice injected with only vehicle formed large tumors by day 14, and consequently, were euthanized. The animals in the other groups were also sacrificed at the same time point to evaluate the effect of the treatments on tumor pathology.

ERK1/2 [11] = assay: Immunoblotting of phosphorylated vs total ERK1/2, MDA-MB-231; assay type: cell-based, human; conditions: 50 μM
Procedure: as §3, with “Cells were washed” for “Cancer or endothelial cells were washed”, “forms of ERK1//2 and AKT. Proteins” for “forms of AKT. Proteins”
as §5

MEK = conditions: previous studies [15]; read-out: IC50 for inhibition of MEK; cited from earlier work

O=c1cc(N2CCOCC2)oc2c(-c3ccccc3)cccc12 [LY294002, 2-(4-morpholinyl)-8-phenylchromone]
viability at 50 µM (B16-F10 [1]): 8% | inhibition of VEGF-induced phosphorylation of AKT (AKT [2]): complete inhibition | viability at 50 µM (LLC): 2% | inhibition of phosphorylation of AKT (AKT [3]): only minimal effect | viability at 50 µM (MDA-MB-231 [4]): 116% | cells in early apoptosis (B16-F10 [5]; 48 hrs): 61.64% | cells in late apoptosis (B16-F10 [5]; 48 hrs): 0.22% | IC50 (PI3K): […] | cells in early apoptosis (MDA-MB-231 [6]; 48 hrs): 3.11% | cells in late apoptosis (MDA-MB-231 [6]; 48 hrs): 0.09% | effect on FGF-induced cell proliferation (HUVEC [7]): […] | tube formation (HUVEC [8]; 50 μM, 24 hrs): significantly inhibited | inhibition at 50 µM (HUVEC [8]; read-out: inhibition of branch length): 98% | inhibition at 50 µM (HUVEC [8]; read-out: inhibition of the number of intersections): 87% | inhibition at 50 µM (HUVEC [8]; read-out: inhibition of the number of nodes): 99%

COc1cccc(-c2cc(=O)c3ccccc3o2)c1N [PD98059]
effect on phospho-ERK signal (ERK1/2 [9]): almost completely abolished | inhibitory effects against a panel of 18 other serine/threonine kinases [10]: no inhibitory effects | increase in late apoptosis (B16-F10 [5]; 48 hours): 61 fold | number of cells in the necrotic stage relative to PD98059-nanoparticle-treated cells (B16-F10 [5]; 48 hours): 51 fold | intratumoral ERK phosphorylation (immunostaining) (B16/F10 melanoma; data not shown): detected | tumor apoptosis (TUNEL-staining) (B16/F10 melanoma; data not shown): minimal effect | tumor growth (tumor volume) (B16/F10 melanoma; three doses, PD98059 5 mg/kg i.v., cisplatin 1.25 mg/kg i.p. one day later, to day 14): only partially inhibited | inhibition of ERK signaling (phospho-ERK1/2 vs total) (ERK1/2 [11]): 5 fold | induction of apoptosis (MDA-MB-231 [6]; 48 hours): failed to induce significant apoptosis | IC50 (MEK): […]

N.N.[Cl][Pt][Cl] [cisplatin]
intratumoral ERK phosphorylation (immunostaining) (B16/F10 melanoma; data not shown): detected | necrotic areas in hematoxylin-eosin tumor sections (B16/F10 melanoma; data not shown): large necrotic areas | tumor apoptosis (TUNEL-staining) (B16/F10 melanoma; data not shown): significant levels of apoptosis
